Data published in US9963433B2, “Anticancer drugs including the chemical structures of an androgen receptor ligand and a histone deacetylase inhibitor” (Wayne State University, priority 2016, dated 2018).

How the values were obtained:
p21 mRNA in C4-2 cells = assay: p21 mRNA induction in C4-2 cells; details: 48 h, FIG. 5B
Method: Total RNA was isolated from cells using the RNeasy Mini Kit (Qiagen). Reverse transcription PCR was then performed using 500 ng of total RNA with random primers and using the high-capacity complementary DNA Archive kit (Applied Biosystems). The complementary DNA from this reaction was measured using quantitative real time PCR using the StepONE Plus Real Time PCR system (Life Technologies Corporation, Carlsbad, Calif.). All reactions were performed in triplicate and normalized to glyceraldehyde-3-phosphate-dehydrogenase values in the same samples.

human recombinant HDAC6 = target: T1, human recombinant HDAC6 (Homo sapiens, UniProt Q9UBN7); assay: HDAC6 fluorometric assay, recombinant enzyme; assay type: biochemical; details: for IC50: cell-free, FIG. 2C, read-out: IC50, inhibition of recombinant HDAC6
T1 construct: purchased Enzo Life Sciences BML-AK516
T1 sequence (Q9UBN7 1-1215): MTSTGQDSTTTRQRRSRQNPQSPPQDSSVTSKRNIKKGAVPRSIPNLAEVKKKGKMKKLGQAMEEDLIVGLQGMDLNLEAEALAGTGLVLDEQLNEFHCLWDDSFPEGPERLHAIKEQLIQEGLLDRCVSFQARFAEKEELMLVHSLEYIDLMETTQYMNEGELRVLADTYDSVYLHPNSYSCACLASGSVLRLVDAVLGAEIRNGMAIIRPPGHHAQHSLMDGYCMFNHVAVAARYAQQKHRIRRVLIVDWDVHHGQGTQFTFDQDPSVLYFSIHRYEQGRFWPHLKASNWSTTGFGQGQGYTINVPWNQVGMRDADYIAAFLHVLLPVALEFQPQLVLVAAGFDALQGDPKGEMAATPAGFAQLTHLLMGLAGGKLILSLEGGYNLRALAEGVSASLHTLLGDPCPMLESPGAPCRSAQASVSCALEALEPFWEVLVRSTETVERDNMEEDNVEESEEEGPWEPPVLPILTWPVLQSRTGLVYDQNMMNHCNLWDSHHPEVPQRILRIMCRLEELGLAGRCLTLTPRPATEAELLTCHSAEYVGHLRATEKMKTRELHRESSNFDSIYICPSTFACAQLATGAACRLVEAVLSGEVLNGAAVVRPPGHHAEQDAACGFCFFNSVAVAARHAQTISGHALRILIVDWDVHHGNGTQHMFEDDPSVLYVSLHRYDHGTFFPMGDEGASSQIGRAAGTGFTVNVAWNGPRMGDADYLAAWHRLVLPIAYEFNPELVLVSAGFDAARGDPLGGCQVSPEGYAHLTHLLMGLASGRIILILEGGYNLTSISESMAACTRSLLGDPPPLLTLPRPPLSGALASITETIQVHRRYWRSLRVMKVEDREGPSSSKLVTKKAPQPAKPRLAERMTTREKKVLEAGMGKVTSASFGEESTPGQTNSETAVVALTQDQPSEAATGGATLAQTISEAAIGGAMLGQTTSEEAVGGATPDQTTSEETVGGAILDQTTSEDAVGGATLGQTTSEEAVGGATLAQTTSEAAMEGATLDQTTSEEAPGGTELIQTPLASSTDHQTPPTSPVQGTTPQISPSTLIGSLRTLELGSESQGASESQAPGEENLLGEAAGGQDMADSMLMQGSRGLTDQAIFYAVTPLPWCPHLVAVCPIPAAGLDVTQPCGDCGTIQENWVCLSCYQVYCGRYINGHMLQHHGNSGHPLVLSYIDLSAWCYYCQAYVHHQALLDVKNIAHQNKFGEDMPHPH
Method: FIGS. 2A-2F show measurement of intrinsic and in situ HDACi activities. […] IC50 values were calculated from nonlinear regression plots using GraphPad Prism5 software. […] Recombinant HDAC6 was incubated with each drug at the indicated concentrations. IC50 values were calculated from nonlinear regression plots using GraphPad Prism5 software.
HDAC activity assay. In vitro HDAC inhibition was measured by using the HDAC fluorimetric assay/drug discovery Kit (Enzo Life Sciences, BML-AK500) and the HDAC6 fluorometric drug discovery kit (Enzo Life Sciences, BML-AK516) following the manufacturer's protocols and instructions. IC50 values were calculated from nonlinear […] plots using GraphPad Prism5 software.
HDAC1 and HDAC2 are enriched in nuclear extracts whereas HDAC6 is a cytosolic enzyme that is the principal modulator of the acetylation status of Hsp90. […] Again, TSA served as the positive control in FIG. 2D.

22Rv1 cells = assay: MTT cell viability assay, 22Rv1 cells; assay type: cell-based; details: Day 3, 0.1 μM-10 μM, FIG. 6E; for EC50: Homo sapiens, 22Rv1, 72 h, read-out: EC50, inhibition of growth of 22Rv1 cells
Method: (6A) C4-2 cells were seeded in 96-well plates and 24 h later, they were treated with the indicated compounds (0.1 μM-10 μM) or with vehicle (DMSO). Cell viability was measured by the MTT assay on Days 0 and 3 of treatment. EC50 values were calculated from nonlinear regression plots using GraphPad Prism5 software. […] Cell viability was measured by the MTT assay on Days 0 and 3 of treatment. […] Cell viability was measured by the MTT assay on Days 0 and 3 of treatment. […] (6D) 22Rv1 cells were infected with AR shRNA lentivirus, or control shRNA. 72 h after infection, cells were plated and viable cells were measured by the MTT assay on the indicated days (6D, bottom). Cells were also harvested for western blot analysis and probed with antibody to AR, which was also reactive with the AR splice variant AR-V7 (6D, top). (6E) 22Rv1 cells were seeded in 96-well plates and 24 h later, they were treated with the indicated compounds (0.1 μM-10 μM) or with vehicle (DMSO). Cell viability was measured by the MTT assay on Days 0 and 3 of treatment. EC50 values were calculated from nonlinear regression plots using GraphPad Prism5 software.
Cell Proliferation Assay. Cells were trypsinized and 6000 cells/well were seeded in 96-well plates coated with poly-D-lysine. The cells were seeded in phenol red-free medium supplemented with 10% FBS, 100 units/ml penicillin, 100 μg/ml streptomycin, 2 mM L-glutamine mixture and sodium pyruvate (1 mM) for C4-2 cells and phenol red-free medium supplemented with 10% FBS, 100 units/ml penicillin, 100 μg/ml streptomycin and 2 mM L-glutamine mixture for 22Rv1 cells. The cells were grown at 37° C. in 5% CO2. Twenty four hours after seeding in the 96-well plates, the cells were treated with indicated compound or DMSO (vehicle). The culture medium was not changed during the time course of the assay. On Day zero and on Day 3, cell viability was determined using the MTT assay. MTT (10 μL, 5 mg/mL) was added to each well and incubated for 2 h at 37° C. The formazan crystal sediments were dissolved in 100 μL of DMSO, and the absorbance at 570 nm was measured using the BioTek Synergy 2 Microplate Reader (BioTek, Winooski, Vt.). […] IC50 values were calculated from nonlinear […] plots using GraphPad Prism5 software.

CC1(C)C(=O)N(c2ccc(C#N)c(C(F)(F)F)c2)C(=S)N1c1ccc(C(=O)NCCCCCCC(=O)NO)c(F)c1 [Compound 2-75, 4-(3-(4-cyano-3-(trifluoromethyl)phenyl)-5,5-dimethyl-4-oxo-2-thioxoimidazolidin-1-yl)-2-fluoro-N-(7-(hydroxyamino)-7-oxoheptyl)benzamide]
p21 mRNA expression (p21 mRNA in C4-2 cells): induced p21 to a greater extent than SAHA | IC50 (human recombinant HDAC6): 2 µM | EC50 (22Rv1 cells): 4.68 µM

CC1(C)C(=O)N(c2ccc(C#N)c(C(F)(F)F)c2)C(=S)N1c1ccc(/C=C/C(=O)NO)c(F)c1 [Compound 1005, (E)-3-(4-(3-(4-cyano-3-(trifluoromethyl)phenyl)-5,5-dimethyl-4-oxo-2-thioxoimidazolidin-1-yl)-2-fluorophenyl)-N-hydroxyacrylamide]
p21 mRNA expression (p21 mRNA in C4-2 cells): induced p21 to a greater extent than SAHA | IC50 (human recombinant HDAC6): 6.93 µM | EC50 (22Rv1 cells): 4.17 µM

CNC(=O)c1ccc(N2C(=S)N(c3ccc(C#N)c(C(F)(F)F)c3)C(=O)C2(C)C)cc1F [Enz, Enzalutamide, reference compound]
p21 mRNA expression (p21 mRNA in C4-2 cells): had no effect | inhibitory activity against HDAC6 (human recombinant HDAC6; tested at 10 μM and 25 μM, FIG. 2D): did not show significant inhibitory activity | effect on growth of 22Rv1 cells (22Rv1 cells): not
